Assay results reported in patent US20150290612A1 (priority 2012, published 2015).

Target: Acetylcholinesterase (AChE) (Electrophorus electricus, UniProt O42275)
Format: biochemical

Acetylcholinesterase (AChE), sequence (O42275 24-633): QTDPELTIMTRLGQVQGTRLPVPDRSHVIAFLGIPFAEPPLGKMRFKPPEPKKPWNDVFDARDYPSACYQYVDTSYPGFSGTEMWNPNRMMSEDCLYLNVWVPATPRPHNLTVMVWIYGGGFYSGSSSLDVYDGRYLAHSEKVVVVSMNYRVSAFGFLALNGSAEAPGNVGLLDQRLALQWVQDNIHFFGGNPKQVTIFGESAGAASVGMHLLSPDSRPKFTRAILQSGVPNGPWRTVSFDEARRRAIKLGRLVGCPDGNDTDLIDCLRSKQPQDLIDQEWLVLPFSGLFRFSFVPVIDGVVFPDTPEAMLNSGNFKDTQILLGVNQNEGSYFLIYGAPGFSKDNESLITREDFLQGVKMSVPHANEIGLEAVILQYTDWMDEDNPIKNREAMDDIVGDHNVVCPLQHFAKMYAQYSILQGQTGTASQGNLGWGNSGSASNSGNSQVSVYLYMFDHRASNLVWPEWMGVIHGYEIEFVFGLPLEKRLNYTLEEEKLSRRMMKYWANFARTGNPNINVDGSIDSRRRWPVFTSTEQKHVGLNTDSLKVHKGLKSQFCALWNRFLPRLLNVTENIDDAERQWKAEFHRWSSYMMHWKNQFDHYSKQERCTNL

| SMILES | Interference with analysis of organophosphates |
| --- | --- |
| CCNc1nc(Cl)nc(NC(C)C)n1 [atrazine] | no interference |
| CCNc1nc(Cl)nc(NCC)n1 [simazine] | no interference |
